Columns and labels:
[1] = system: Bacteroides fragilis; experiment: Antimicrobial activity against Bacteroides fragilis GAI 10150 by agar dilution method in presence of 5% laked sheep blood; format: functional
[2] = system: Fusobacterium necrophorum; experiment: Antimicrobial activity against Fusobacterium necrophorum by agar dilution method in presence of 5% laked sheep blood; format: functional
[3] = system: Eggerthella lenta; experiment: Antimicrobial activity against Eggerthella lenta by agar dilution method in presence of 5% laked sheep blood; format: functional
[4] = system: Fusobacterium nucleatum; experiment: Antimicrobial activity against Fusobacterium nucleatum by agar dilution method in presence of 5% laked sheep blood; format: functional
[5] = system: Desulfovibrio desulfuricans; experiment: Antimicrobial activity against Desulfovibrio desulfuricans by agar dilution method in presence of 5% laked sheep blood; format: functional
[6] = system: Fusobacterium nucleatum; experiment: Antimicrobial activity against Fusobacterium nucleatum ATCC 25586 by agar dilution method in presence of 5% laked sheep blood; format: functional
[7] = system: Porphyromonas asaccharolytica; experiment: Antimicrobial activity against Porphyromonas asaccharolyticus ATCC 25260 by agar dilution method in presence of 5% laked sheep blood; format: functional; details: DSM 20707
[8] = system: Fusobacterium sp.; experiment: Antimicrobial activity against Fusobacterium sp. by agar dilution method in presence of 5% laked sheep blood; format: functional
[9] = system: Bacteroides uniformis; experiment: Antimicrobial activity against Bacteroides uniformis by agar dilution method in presence of 5% laked sheep blood; format: functional
[10] = system: Parabacteroides distasonis; experiment: Antimicrobial activity against Parabacteroides distasonis by agar dilution method in presence of 5% laked sheep blood; format: functional
[11] = system: Limosilactobacillus reuteri; experiment: Antimicrobial activity against Lactobacillus reuteri JCM 1112 by agar dilution method in presence of 5% laked sheep blood; format: functional
[12] = system: Atopobium parvulum; experiment: Antimicrobial activity against Atopobium parvulum VPI 0546 by agar dilution method in presence of 5% laked sheep blood; format: functional; details: Lancefieldella parvula
[13] = system: Parvimonas micra; experiment: Antimicrobial activity against Parvimonas micra by agar dilution method in presence of 5% laked sheep blood; format: functional
[14] = system: Bacteroides stercoris; experiment: Antimicrobial activity against Bacteroides stercoris by agar dilution method in presence of 5% laked sheep blood; format: functional
[15] = system: Streptococcus intermedius; experiment: Antimicrobial activity against Streptococcus intermedius ATCC 27335 by agar dilution method in presence of 5% laked sheep blood; format: functional
[16] = system: Bifidobacterium pseudolongum; experiment: Antimicrobial activity against Bifidobacterium pseudolongum ATCC 25526 by agar dilution method in presence of 5% laked sheep blood; format: functional
[17] = system: Bacteroides fragilis; experiment: Antimicrobial activity against Bacteroides fragilis GAI 5562 by agar dilution method in presence of 5% laked sheep blood; format: functional
[18] = system: Eggerthella lenta; experiment: Antimicrobial activity against Eggerthella lenta ATCC 25559 by agar dilution method in presence of 5% laked sheep blood; format: functional
[19] = system: Odoribacter splanchnicus; experiment: Antimicrobial activity against Odoribacter splanchnicus by agar dilution method in presence of 5% laked sheep blood; format: functional
[20] = system: Bacteroides fragilis; experiment: Antimicrobial activity against Bacteroides fragilis by agar dilution method in presence of 5% laked sheep blood; format: functional
[21] = system: Peptoniphilus asaccharolyticus; experiment: Antimicrobial activity against Peptoniphilus asaccharolyticus WAL 3218 by agar dilution method in presence of 5% laked sheep blood; format: functional
[22] = system: Bacteroides caccae; experiment: Antimicrobial activity against Bacteroides caccae by agar dilution method in presence of 5% laked sheep blood; format: functional
[23] = system: Porphyromonas gingivalis; experiment: Antimicrobial activity against Porphyromonas gingivalis by agar dilution method in presence of 5% laked sheep blood; format: functional
[24] = system: Gemella morbillorum; experiment: Antimicrobial activity against Gemella morbillorum ATCC 27824 by agar dilution method in presence of 5% laked sheep blood; format: functional
[25] = Antimicrobial activity against Bifidobacterium longum subsp. longum ATCC 15707 by agar dilution method in presence of 5% laked sheep blood; format: functional
[26] = Antimicrobial activity against Desulfovibrio piger DSM 749 by agar dilution method in presence of 5% laked sheep blood; format: functional, Desulfovibrio piger ATCC 29098
[27] = system: Porphyromonas uenonis; experiment: Antimicrobial activity against Porphyromonas uenonis by agar dilution method in presence of 5% laked sheep blood; format: functional
[28] = system: Bifidobacterium breve; experiment: Antimicrobial activity against Bifidobacterium breve ATCC 15700 by agar dilution method in presence of 5% laked sheep blood; format: functional
[29] = system: Clostridioides difficile; experiment: Antimicrobial activity against Clostridium difficile by agar dilution method in presence of 5% laked sheep blood; format: functional
[30] = system: Paeniclostridium sordellii; experiment: Antimicrobial activity against Clostridium sordellii ATCC 9714 by agar dilution method in presence of 5% laked sheep blood; format: functional; details: Paraclostridium sordellii
[31] = system: Clostridium perfringens; experiment: Antimicrobial activity against Clostridium perfringens ATCC 13124 by agar dilution method in presence of 5% laked sheep blood; format: functional
[32] = system: Bacteroides uniformis; experiment: Antimicrobial activity against Bacteroides uniformis ATCC 8492 by agar dilution method in presence of 5% laked sheep blood; format: functional
[33] = system: Peptoniphilus asaccharolyticus; experiment: Antimicrobial activity against Peptoniphilus asaccharolyticus by agar dilution method in presence of 5% laked sheep blood; format: functional
[34] = Antimicrobial activity against Bifidobacterium adolescentis ATCC 15703 by agar dilution method in presence of 5% laked sheep blood; format: functional
[35] = system: Lactobacillus brevis; experiment: Antimicrobial activity against Lactobacillus brevis subsp. brevis JCM 1059 by agar dilution method in presence of 5% laked sheep blood; format: functional; details: Levilactobacillus brevis
[36] = system: Bacteroides thetaiotaomicron; experiment: Antimicrobial activity against Bacteroides thetaiotaomicron by agar dilution method in presence of 5% laked sheep blood; format: functional
[37] = Antimicrobial activity against Veillonella dispar ATCC 17748 by agar dilution method in presence of 5% laked sheep blood; format: functional
[38] = system: Porphyromonas asaccharolytica; experiment: Antimicrobial activity against Porphyromonas asaccharolyticus by agar dilution method in presence of 5% laked sheep blood; format: functional
[39] = system: Peptostreptococcus anaerobius; experiment: Antimicrobial activity against Peptostreptococcus anaerobius by agar dilution method in presence of 5% laked sheep blood; format: functional
[40] = system: Eubacterium limosum; experiment: Antimicrobial activity against Eubacterium limosum by agar dilution method in presence of 5% laked sheep blood; format: functional
[41] = system: Prevotella denticola; experiment: Antimicrobial activity against Prevotella denticola GAI 5490 by agar dilution method in presence of 5% laked sheep blood; format: functional
[42] = system: Finegoldia magna; experiment: Antimicrobial activity against Finegoldia magna by agar dilution method in presence of 5% laked sheep blood; format: functional
[43] = system: Prevotella oris; experiment: Antimicrobial activity against Prevotella oris ATCC 33573 by agar dilution method in presence of 5% laked sheep blood; format: functional; details: Segatella oris
[44] = system: Desulfovibrio desulfuricans; experiment: Antimicrobial activity against Desulfovibrio desulfuricans ATCC 29577 by agar dilution method in presence of 5% laked sheep blood; format: functional
[45] = system: Prevotella melaninogenica; experiment: Antimicrobial activity against Prevotella melaninogenica by agar dilution method in presence of 5% laked sheep blood; format: functional

Cc1ncc([N+](=O)[O-])n1CCO [METRONIDAZOLE]
> 128 µg/mL: MIC [11] | MIC [15] | MIC [16] | MIC [24] | MIC [35]
64 µg/mL: MIC [34]
0.125 µg/mL: MIC50 [5] | MIC50 [39]
16 µg/mL: MIC [28]
8 µg/mL: MIC [25]
2 µg/mL: MIC90 [33] | MIC90 [36] | MIC [37] | MIC90 [45]
1 µg/mL: MIC [1] | MIC90 [9] | MIC90 [10] | MIC90 [13] | MIC90 [14] | MIC [17] | MIC90 [19] | MIC90 [20] | MIC [21] | MIC90 [22] | MIC50 [29] | MIC90 [29] | MIC [30] | MIC [31] | MIC50 [33] | MIC90 [42] | MIC50 [45]
≤ 0.015 µg/mL: MIC50 [2] | MIC50 [4] | MIC [6] | MIC50 [8]
0.06 µg/mL: MIC50 [23] | MIC50 [27] | MIC50 [38] | MIC [44]
0.25 µg/mL: MIC90 [5] | MIC [7] | MIC90 [23] | MIC [26] | MIC90 [27] | MIC90 [38] | MIC [41] | MIC [43]
0.5 µg/mL: MIC90 [2] | MIC50 [3] | MIC90 [3] | MIC90 [4] | MIC90 [8] | MIC50 [9] | MIC50 [10] | MIC [12] | MIC50 [13] | MIC50 [14] | MIC [18] | MIC50 [19] | MIC50 [20] | MIC50 [22] | MIC [32] | MIC50 [36] | MIC90 [39] | MIC50 [40] | MIC90 [40] | MIC50 [42]
